Reference: patent US20090317741A1, “COMPOUND, ACID GENERATOR, RESIST COMPOSITION AND METHOD OF FORMING RESIST PATTERN” (Tokyo Ohka Kogyo Co., Ltd., priority 2006, published 2009)

Method: The solution of propylene glycol monomethyl ether acetate (PGMEA), propylene glycol monomethyl ether (PGME), or ethyl lactate (EL) with each compound described above was prepared, while changing the concentration. After the preparation, each solution was stirred, and then the concentration in which each acid generator was completely dissolved was measured.

Solubility in EL [% by weight] | Solubility in PGME [% by weight] | Solubility in PGMEA [% by weight] | SMILES
>20 | >20 | 15 | CCC(C)(C)c1ccc(-[s+]2c3ccccc3c3ccccc32)cc1 [Compound (b1-24)]
7 | >20 | 5 | CC(C)(C)c1ccc(-[s+]2c3ccccc3c3ccccc32)cc1 [Compound (b1-21)]
